Laboratory results published in patent publication US20250282785A1, “PYRROLIDINONE DERIVATIVES AS INHIBITORS OF NF KAPPA B INDUCING KINASE” (priority 2022, published 2025).

Columns and labels:
[1] = test system: p-IKKα levels in L363 (NIK translocated multiple myeloma) cells; experiment: Effect of compounds on p-IKKα levels in L363 cells (AlphaLISA SureFire Ultra); format: cell-based; conditions: Homo sapiens, L-363; L363 cells, BAFF stimulated, MG132, 6 h; average of values; read-out: Assay 2 IC50
How it was run: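 Phospho-IKKα (Ser 176/180) was quantified by AlphaLISA in lysed L363 cells after 6 h compound exposure (0.3% DMSO, 11 points, 1:3) alongside 250 ng/ml BAFF and 10 uM MG132, following overnight BAFF priming in low-serum DMEM. Duplicate curves were scaled between BAFF/DMSO/MG132 and unstimulated DMSO wells, then fitted sigmoidally for IC50.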

[2] = target: Recombinant Human NF-Kappab-Inducing Kinase (NIK/MAP3K14) (Homo sapiens, UniProt Q99558); experiment: Inhibition of auto-phosphorylation of recombinant human NIK/MAP3K14 (AlphaScreen); format: biochemical; conditions: NIK/MAP3K14 auto-phosphorylation, 5 microM ATP, 1 nM enzyme, 2 h at 25° C.; average of values; read-out: Assay 1 IC50
How it was run: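 AlphaScreen read-out used anti-phospho-IKK Ser176/180 antibody after 2 h, 25 °C incubation of compound, 1 nM GST-NIK and 5 µM ATP (final DMSO 0.7%). Percent inhibition referenced to high (enzyme) and low (no enzyme, no ATP) controls; sigmoidal curve fitting gave IC50.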

Sequence of Recombinant Human NF-Kappab-Inducing Kinase (NIK/MAP3K14) (Q99558 whole entry): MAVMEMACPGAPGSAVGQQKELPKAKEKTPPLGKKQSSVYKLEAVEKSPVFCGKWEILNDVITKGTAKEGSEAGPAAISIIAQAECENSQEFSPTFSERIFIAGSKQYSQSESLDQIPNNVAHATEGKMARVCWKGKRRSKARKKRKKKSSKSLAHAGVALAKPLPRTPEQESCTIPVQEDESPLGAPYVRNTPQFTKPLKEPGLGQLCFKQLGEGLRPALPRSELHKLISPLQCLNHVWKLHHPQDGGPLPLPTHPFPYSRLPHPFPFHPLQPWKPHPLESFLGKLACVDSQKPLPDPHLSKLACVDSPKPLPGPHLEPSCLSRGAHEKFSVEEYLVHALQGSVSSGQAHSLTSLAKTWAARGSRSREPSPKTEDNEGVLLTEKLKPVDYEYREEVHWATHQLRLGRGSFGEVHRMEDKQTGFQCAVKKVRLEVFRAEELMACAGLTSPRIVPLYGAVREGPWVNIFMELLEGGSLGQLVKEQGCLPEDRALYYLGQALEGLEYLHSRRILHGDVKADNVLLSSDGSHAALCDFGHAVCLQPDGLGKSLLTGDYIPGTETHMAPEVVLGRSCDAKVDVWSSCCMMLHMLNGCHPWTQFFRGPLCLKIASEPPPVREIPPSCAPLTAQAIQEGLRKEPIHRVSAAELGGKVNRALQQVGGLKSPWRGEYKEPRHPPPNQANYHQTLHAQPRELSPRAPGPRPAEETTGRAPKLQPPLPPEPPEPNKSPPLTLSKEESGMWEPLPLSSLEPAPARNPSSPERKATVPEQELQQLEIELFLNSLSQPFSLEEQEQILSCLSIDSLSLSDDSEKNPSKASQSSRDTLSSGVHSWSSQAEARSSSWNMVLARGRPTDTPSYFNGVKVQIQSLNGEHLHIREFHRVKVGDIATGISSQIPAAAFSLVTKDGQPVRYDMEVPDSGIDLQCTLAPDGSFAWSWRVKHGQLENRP

Row | SMILES | IC50 [1] | IC50 [2]
1 | CN1CC[C@@](O)(c2cc(-c3cccc(-c4ccc5cnn(C)c5n4)c3)no2)C1=O [Example 78, (R)-3-Hydroxy-1-methyl-3-(3-(3-(1-methyl-1H-pyrazolo[3,4-b]pyridin-6-yl)phenyl)isoxazol-5-yl)pyrrolidin-2-one] | > 0.501 µM | 0.1 to 0.5 µM
2 | Cc1cn2cc(-c3cccc(-c4cc([C@]5(O)CCN(C)C5=O)on4)c3)ccc2n1 [Example 79, (R)-3-Hydroxy-1-methyl-3-(3-(3-(2-methylimidazo[1,2-a]pyridin-6-yl)phenyl)isoxazol-5-yl)pyrrolidin-2-one] | > 0.501 µM | > 0.501 µM
3 | CN1CC[C@@](O)(c2cc(-c3cccc(-c4ccc5c(c4)N(C)C(=O)CN5)c3)no2)C1=O [Example 80, (R)-7-(3-(5-(3-Hydroxy-1-methyl-2-oxopyrrolidin-3-yl)isoxazol-3-yl)phenyl)-1-methyl-3,4-dihydroquinoxalin-2(1H)-one] | > 0.501 µM | > 0.501 µM
4 | COc1cc2c(cc1-c1cccc(-c3cc([C@]4(O)CCN(C)C4=O)on3)c1)COC2 [Example 81, (R)-3-Hydroxy-3-(3-(3-(6-methoxy-1,3-dihydroisobenzofuran-5-yl)phenyl)isoxazol-5-yl)-1-methylpyrrolidin-2-one] | > 0.501 µM | > 0.501 µM
5 | CN1CC[C@@](O)(c2cc(-c3cccc(-c4cccc5c(=O)[nH]ccc45)c3)no2)C1=O [Example 82, (R)-5-(3-(5-(3-Hydroxy-1-methyl-2-oxopyrrolidin-3-yl)isoxazol-3-yl)phenyl)isoquinolin-1 (2H)-one] | > 0.501 µM | > 0.501 µM
6 | CN1CC[C@@](O)(c2cc(-c3cccc(-c4cc5[nH]ncc5cn4)c3)no2)C1=O [Example 83, (R)-3-(3-(3-(1H-pyrazolo[4,3-c]pyridin-6-yl)phenyl)isoxazol-5-yl)-3-hydroxy-1-methylpyrrolidin-2-one] | > 0.501 µM | > 0.501 µM
7 | Cc1n[nH]c2nc(-c3cccc(-c4cc([C@]5(O)CCN(C)C5=O)on4)c3)cc(C(N)=O)c12 [Example 84, (R)-6-(3-(5-(3-Hydroxy-1-methyl-2-oxopyrrolidin-3-yl)isoxazol-3-yl)phenyl)-3-methyl-1H-pyrazolo[3,4-b]pyridine-4-carboxamide] | > 0.501 µM | > 0.501 µM
8 | CN1CC[C@@](O)(c2cc(-c3cccc(-c4cc(C5CC5)nc(C(N)=O)n4)c3)no2)C1=O [Example 85, (R)-4-Cyclopropyl-6-(3-(5-(3-hydroxy-1-methyl-2-oxopyrrolidin-3-yl)isoxazol-3-yl)phenyl)pyrimidine-2-carboxamide] | > 0.501 µM | < 0.1 µM
9 | CN1CC[C@@](O)(c2cc(-c3cccc(-c4cccc5cnc(N)nc45)c3)no2)C1=O [Example 86, (R)-3-(3-(3-(2-Aminoquinazolin-8-yl)phenyl)isoxazol-5-yl)-3-hydroxy-1-methylpyrrolidin-2-one] | > 0.501 µM | < 0.1 µM
10 | COc1ccc(-c2cccc(-c3cc([C@]4(O)CCN(C)C4=O)on3)c2)nc1C(N)=O [Example 87, (R)-6-(3-(5-(3-Hydroxy-1-methyl-2-oxopyrrolidin-3-yl)isoxazol-3-yl)phenyl)-3-methoxypicolinamide] | > 0.501 µM | > 0.501 µM
11 | CN1CC[C@@](O)(c2cc(-c3cccc(-c4cc(C5CC5)c(N)c(C(N)=O)n4)c3)no2)C1=O [Example 88, (R)-3-Amino-4-cyclopropyl-6-(3-(5-(3-hydroxy-1-methyl-2-oxopyrrolidin-3-yl)isoxazol-3-yl)phenyl)picolinamide] | < 0.1 µM | < 0.1 µM
12 | CN1CC[C@@](O)(c2cc(-c3cccc(-c4nc(C(N)=O)c(N)cc4F)c3)no2)C1=O [Example 89, (R)-3-Amino-5-fluoro-6-(3-(5-(3-hydroxy-1-methyl-2-oxopyrrolidin-3-yl)isoxazol-3-yl)phenyl)picolinamide] | 0.1 to 0.5 µM | < 0.1 µM
13 | CCn1cnc2c(C(N)=O)nc(-c3cccc(-c4cc([C@]5(O)CCN(C)C5=O)on4)c3)cc21 [Example 90, (R)-1-Ethyl-6-(3-(5-(3-hydroxy-1-methyl-2-oxopyrrolidin-3-yl)isoxazol-3-yl)phenyl)-1H-imidazo[4,5-c]pyridine-4-carboxamide] | > 0.501 µM | 0.1 to 0.5 µM
14 | CN1CC[C@@](O)(c2cc(-c3cccc(-c4cc(C(F)(F)F)cc(C(N)=O)n4)c3)no2)C1=O [Example 91, (R)-6-(3-(5-(3-Hydroxy-1-methyl-2-oxopyrrolidin-3-yl)isoxazol-3-yl)phenyl)-4-(trifluoromethyl)picolinamide] | 0.1 to 0.5 µM | < 0.1 µM
15 | CN1CC[C@@](O)(c2cc(-c3cccc(-c4cn5cccc(C(N)=O)c5n4)c3)no2)C1=O [Example 92, (R)-2-(3-(5-(3-Hydroxy-1-methyl-2-oxopyrrolidin-3-yl)isoxazol-3-yl)phenyl) imidazo[1,2-a]pyridine-8-carboxamide] | > 0.501 µM | 0.1 to 0.5 µM
16 | CN1CC[C@@](O)(c2cc(-c3cccc(-c4nc(C(N)=O)n5c4CCCC5)c3)no2)C1=O [Example 93, (R)-1-(3-(5-(3-Hydroxy-1-methyl-2-oxopyrrolidin-3-yl)isoxazol-3-yl)phenyl)-5,6,7,8-tetrahydroimidazo[1,5-a]pyridine-3-carboxamide] | < 0.1 µM | < 0.1 µM
17 | CN1CC[C@@](O)(c2cc(-c3cccc(-c4cc(C(N)=O)nc5[nH]ccc45)c3)no2)C1=O [Example 94, (R)-4-(3-(5-(3-Hydroxy-1-methyl-2-oxopyrrolidin-3-yl)isoxazol-3-yl)phenyl)-1H-pyrrolo[2,3-b]pyridine-6-carboxamide] | > 0.501 µM | > 0.501 µM
18 | CN1CC[C@@](O)(c2cc(-c3cccc(-n4nc(C(=O)O)c5c4CCCC5)c3)no2)C1=O [Example 95, (R)-1-(3-(5-(3-Hydroxy-1-methyl-2-oxopyrrolidin-3-yl)isoxazol-3-yl)phenyl)-4,5,6,7-tetrahydro-1H-indazole-3-carboxylic acid] | > 0.501 µM | > 0.501 µM
19 | CN1CC[C@@](O)(c2cc(-c3cccc(-c4cc(N)c5nc[nH]c(=O)c5n4)c3)no2)C1=O [Example 96, (R)-8-Amino-6-(3-(5-(3-hydroxy-1-methyl-2-oxopyrrolidin-3-yl)isoxazol-3-yl)phenyl)pyrido[3,2-d]pyrimidin-4(3H)-one] | > 0.501 µM | < 0.1 µM
20 | CN1CC[C@@](O)(c2cc(-c3cccc(-c4cc5[nH]cnc5c(C(N)=O)n4)c3)no2)C1=O [Example 97, (R)-6-(3-(5-(3-Hydroxy-1-methyl-2-oxopyrrolidin-3-yl)isoxazol-3-yl)phenyl)-1H-imidazo[4,5-c]pyridine-4-carboxamide] | 0.1 to 0.5 µM | < 0.1 µM
21 | CN1CC[C@@](O)(c2cc(-c3cccc(-c4nc(C(N)=O)cc(C(F)(F)F)n4)c3)no2)C1=O [Example 98, (R)-2-(3-(5-(3-Hydroxy-1-methyl-2-oxopyrrolidin-3-yl)isoxazol-3-yl)phenyl)-6-(trifluoromethyl)pyrimidine-4-carboxamide] | > 0.501 µM | < 0.1 µM
22 | CN1CC[C@@](O)(c2cc(-c3cccc(-n4nc(C(N)=O)c5cc(-c6ccn(C)n6)ccc54)c3)no2)C1=O [Example 99, (R)-1-(3-(5-(3-Hydroxy-1-methyl-2-oxopyrrolidin-3-yl)isoxazol-3-yl)phenyl)-5-(1-methyl-1H-pyrazol-3-yl)-1H-indazole-3-carboxamide] | < 0.1 µM | < 0.1 µM
23 | CN1CC[C@@](O)(c2cc(-c3cccc(-c4cc(N5CC(F)(F)C5)cc(C(N)=O)n4)c3)no2)C1=O [Example 100, (R)-4-(3,3-Difluoroazetidin-1-yl)-6-(3-(5-(3-hydroxy-1-methyl-2-oxopyrrolidin-3-yl)isoxazol-3-yl)phenyl)picolinamide] | > 0.501 µM | < 0.1 µM
24 | CN1CC[C@@](O)(c2cc(-c3cccc(-n4nc(C(N)=O)c5cc(F)ccc54)c3)no2)C1=O [Example 101, (R)-5-Fluoro-1-(3-(5-(3-hydroxy-1-methyl-2-oxopyrrolidin-3-yl)isoxazol-3-yl)phenyl)-1H-indazole-3-carboxamide] | 0.1 to 0.5 µM | < 0.1 µM
25 | CN1CC[C@@](O)(c2cc(-c3cccc(-n4nc(C(N)=O)c5c4CCCC5)c3)no2)C1=O [Example 102, (R)-1-(3-(5-(3-Hydroxy-1-methyl-2-oxopyrrolidin-3-yl)isoxazol-3-yl)phenyl)-4,5,6,7-tetrahydro-1H-indazole-3-carboxamide] | > 0.501 µM | < 0.1 µM
26 | COc1ccc2c(c1)c(C(N)=O)nn2-c1cccc(-c2cc([C@]3(O)CCN(C)C3=O)on2)c1 [Example 103, (R)-1-(3-(5-(3-Hydroxy-1-methyl-2-oxopyrrolidin-3-yl)isoxazol-3-yl)phenyl)-5-methoxy-1H-indazole-3-carboxamide] | < 0.1 µM | < 0.1 µM
27 | CNc1ccc(-c2cccc(-c3cc([C@]4(O)CCN(C)C4=O)on3)c2)nc1C(N)=O [Example 104, (R)-6-(3-(5-(3-Hydroxy-1-methyl-2-oxopyrrolidin-3-yl)isoxazol-3-yl)phenyl)-3-(methylamino)picolinamide] | < 0.1 µM | < 0.1 µM
28 | CN1CC[C@@](O)(c2cc(-c3cccc(-c4ncc(NC5COC5)c(C(N)=O)n4)c3)no2)C1=O [Example 105, (R)-2-(3-(5-(3-Hydroxy-1-methyl-2-oxopyrrolidin-3-yl)isoxazol-3-yl)phenyl)-5-(oxetan-3-ylamino)pyrimidine-4-carboxamide] | < 0.1 µM | < 0.1 µM
